From patent US20230165841A1, “PREVENTION AND INTERVENTION OF INFARCT EXPANSION FOLLOWING HEMORRHAGIC INFARCTIONS” (CEDARS-SINAI MEDICAL CENTER, priority 2020, published 2023)
Entries after “also recorded” stand apart in the source; their conditions may differ.

Tests used:
[1] = test system: mice with reperfused MI; details: pre-treating prior to ischemia; cited from earlier work
[2] = cited from earlier work
[3] = test system: cardiomyocyte culture; experiment: Total ROS in cardiomyocyte culture treated with Hx, DFP, hemin; assay type: cell-based; details: compared to controls; FIG. 16 axis μM/mg protein/min
Source text: FIG. 16 is a bar graph depicting the total ROS production (μM/mg protein/min) in cardiomyocyte culture treated with different agents or control, indicating the importance of physiochemical state of degradation products of hemorrhage being the therapeutic targets.
Physiochemical features of degradation products of hemorrhage are important for determining optimal therapy. An early byproduct of hemorrhage is extracellular heme (an Fe^2+ complex), which is eventually internalized by cardiomyocytes. Applicant tested whether pretreating cardiomyocytes in culture with hemopexin (Hx), a heme scavenger, can rescue the cells from oxidative stress compared to an intracellular Fe^3+ chelator deferiprone (DFP). Methods: Studies were performed in an cardiomyocyte culture. Total ROS following treatment with Hx, DFP, hemin, hemin+Hx, hemin+DFP were measured. […] Summary: Location of hemorrhagic byproducts (intra- vs. extra-cellular) and oxidation state are critical features that need to be accounted for in the development of therapies against hMI. To develop an optimal ICT strategy against hMI we will identify the physiochemical features of hemorrhagic byproducts in rats with hMI sacrificed at different time points.

[4] = test system: dogs with reperfused hemorrhagic MI; experiment: Deferiprone interventional arm in canine model of hemorrhagic MI (serial CMR); assay type: in vivo, dog
[5] = test system: rats subjected to hMIs (90-min I/R); details: for LVEF: echocardiography, EDTA 40 mg/kg/day oral gavage upon reperfusion, followed 4 weeks, PBS 30±4%; for Adverse LV remodeling / cardioprotection: rats with hMI, post reperfusion treatment
[6] = test system: post MI patients; details: 6 months of EDTA therapy starting 6-weeks post MI; cited from earlier work
[7] = test system: rats with 90-min I/R (hMI); experiment: Hemopexin treatment of rats with 90-min I/R (hMI); assay type: in vivo, rat
Source text: FIGS. 12A and 12B depict the therapeutic benefits of hemopexin (Hx). […] Note the ventricular dilation in rats treated with PBS (not evident Hx treated rates). Long- and shor-axis (along dotted lines) views are shown.
Background: Hemopexin (Hx), a known scavenger of heme, and a key byproduct of hemorrhage. Applicant tested whether treating rats with 90-min I/R (known to yield hMI) with Hx could reduce oxidative stress in the acute phase and improve LV remodeling in the chronic phase. Methods: Rats (n=12) underwent 90-min I/R: 50% of the animals were treated with Hx (700 μg, i.p. immediately and 2 days post reperfusion) and the rest were treated with PBS. LV function was determined with echo. Half of each group was sacrificed at 24-hrs and the rest were sacrificed at 1-month post MI. […] LVEF were: 51±4% (Hx+) vs 32±5% (control), p<0.05. Summary: Heme-specific scavenger, Hx, can attenuate the adverse effects of hMI.

[8] = DFP 100 mg/kg/day oral gavage from 3 days post reperfusion
[9] = vs EDTA-treated or placebo controls

c1ccc(-c2ccccn2)nc1 [BPD, 2,2-bipyridl]
Mitochondrial iron and reperfusion injury [1]: could reduce

CC(=O)N(O)CCCCCNC(=O)CCC(=O)N(O)CCCCCNC(=O)CCC(=O)N(O)CCCCCN [DFO, deferoxamine]
Lipid solubility (note in Location column) [2]: (lipid insoluble)

Cc1c(O)c(=O)ccn1C [DFP, Deferiprone]
Total ROS, agent alone [3]: did not increase | Relative PDFF in the MI zones, change between D3 and Wk8 ([4]; DFP+/IMH+ group): did not show an increase | LVEF ([4]; DFP+/IMH+ group by M6, p<0.03): over 40% | Remote wall thickness, change over the 6-month period ([4]; DFP+/IMH+ group, diastolic): decreased | Magnitude of peak circumferential strain (Peak εc) vs DFP−/IMH+ group ([4]; Wk8 to M6 and D3 to M6, p<0.05): significant greater | Fat infiltration within the MI zones vs DFP−/IMH+ group ([4]; at M6): significantly lower | Infarct wall thickness, treated group compared to untreated group ([4]; at M6, p<0.05): +34% | Infarct-to-remote wall thickness (I:RWT), DFP+/IMH+ vs DFP−/IMH+ ([4]; at M6, p<0.05): +67% | Remote wall thickness, DFP−/IMH+ group compared to DFP+/IMH+ group ([4]; at M6, untreated larger, p<0.05): +28% | LVEF, DFP+/IMH+ group vs DFP−/IMH+ group ([4]; at Month 6, p<0.005): +36% | Fat content based on PDFF (normalized to D3) vs untreated group ([4]; at Wk8 and M6): marked reduction | End-systolic volume (ESV) vs DFP−/IMH+ group ([4]; at both Wk8 and Mo6, p<0.05): lower | Fat content within MI zone vs untreated control group ([4]; at the end of the treatment period (Wk8)): decreased precipitously | Safety of delayed treatment [5, 8]: safe | Iron and proinflammatory markers in the scarred myocardium ([5]; IL-1β, TNF-α, MMP9, vs EDTA-treated or placebo controls): reduced | Iron in MI zones ([5]; T2*-CMR / Prussian Blue, vs EDTA-treated or placebo controls): little to no iron; also recorded: much lower | LVEF [5, 8]: 42±4% | Adverse LV remodeling / cardioprotection [5]: marked reduction | LV dilatation [5, 9]: reduced | Wall thickness (infarcted and remote) [5, 9]: thicker

O=C(O)CN(CCN(CC(=O)O)CC(=O)O)CC(=O)O [EDTA, ethylenediaminetetraacetic acid]
LVEF [5, 8]: 32±3% | Adverse LV remodeling / cardioprotection [5]: did not decrease; also recorded: does not provide cardioprotection | Stability of ferric-EDTA complex ([2]; can be transformed to ferrous-EDTA in vivo): unstable | MACE [6]: did not decrease

hemin
Total ROS, agent alone [3]: markedly increased

B1: hemopexin (protein, UniProt P02790 24-462, looked up)
Hemopexin: TPLPPTSAHGNVAEGETKPDPDVTERCSDGWSFDATTLDDNGTMLFFKGEFVWKSHKWDRELISERWKNFPSPVDAAFRQGHNSVFLIKGDKVWVYPPEKKEKGYPKLLQDEFPGIPSPLDAAVECHRGECQAEGVLFFQGDREWFWDLATGTMKERSWPAVGNCSSALRWLGRYYCFQGNQFLRFDPVRGEVPPRYPRDVRDYFMPCPGRGHGHRNGTGHGNSTHHGPEYMRCSPHLVLSALTSDNHGATYAFSGTHYWRLDTSRDGWHSWPIAHQWPQGPSAVDAAFSWEEKLYLVQGTQVYVFLTKGGYTLVSGYPKRLEKEVGTPHGIILDSVDAAFICPGSSRLHIMAGRRLWWLDLKSGAQATWTELPWPHEKVDGALCMEKSLGPNSCSANGPGLYLIHGPNLYCYSDVEKLNAAKALPQPQNVTSLLGCTH
notes: a known scavenger of heme
LV remodeling ([7]; 1-month post reperfusion, vs PBS-treated group): better | Total ROS (production within MI) ([7]; 24 hrs post reperfusion, Hx 700 μg i.p. immediately and 2 days post reperfusion, vs PBS control): significantly lower | LVEF ([7]; echo, Hx 700 μg i.p. immediately and 2 days post reperfusion, control 32±5%, p<0.05): 51±4% | Total ROS, agent alone [3]: did not increase
